Legend:
TGFβ2 = assay: Q-PCR, TGFβ2 mRNA expression in HaCaT cells; assay type: cell-based, human
[1] = test system: human epidermal HaCaT keratinocytes; assay: fluorometric CyQUANT cell proliferation study (DNA content); assay type: cell-based; settings: 0.00005, 0.0005, 0.005% caffeine; 24, 48 or 72 hours; best effects after 72 hours
Procedure: To investigate the effect of caffeine on cell proliferation of human epidermal HaCaT keratinocytes, human HaCaT keratinocytes were subjected to a CyQUANT viability assay, wherein the following series of experiments were performed: • 1. P22 Experiment 1 (biological assay 1) • 2. P24 Experiment 2 (biological assay 2).
The trial durations were 24, 48 or 72 hours.
The study was carried out by fluorometric CyQUANT study, wherein the DNA content was measured, reflecting cell proliferation.

[2] = test system: human epidermal HaCaT keratinocytes; assay: colorimetric MTT viability study on HaCaT keratinocytes
Procedure: To investigate the effect of caffeine on the biological functions of human epidermal HaCaT keratinocytes, cell experiments were performed on human epidermal HaCaT keratinocytes, wherein the following studies were carried out: • 1.
The initial cell count was 5000 cells/well in 100 μl culture medium.
The culture medium was HaCaT medium (DMEM with the addition of 10% FBS, 1% penicillin-streptomycin, 0.5% fungizone).
The treatment groups were as follows: • 1. Control group (CTRL) • 2. 0.00005% caffeine • 3. 0.0001% caffeine • 4. 0.0005% caffeine • 5. 0.001% caffeine • 6. 0.005% caffeine
The trial durations were 24, 48 and 72 hours.
The study took the form of a colorimetric MTT study.

VEGF [3] = assay: ELISA, VEGF protein synthesis/secretion into the culture medium of HaCaT cells; assay type: cell-based, human; settings: 48 hours
Procedure: (§1) For Q-PCR: Determination of VEGF, HGF and EGF mRNA expression in cell lysates • 2. For ELISA: Determination of VEGF, HGF and EGF protein synthesis/secretion into the culture medium
(§2) The initial cell count was • 1. for Q-PCR: 140,000 cells/well in 1500 μl culture medium • 2. for ELISA: 140,000 cells/well in 1.500 μl culture medium.
(§3) The trial duration for • 1. Q-PCR was 24 hours (single treatment at time 0 h) • 2. ELISA was 48 hours (double treatment at time 0 h and 24 h without changing the medium).
(§4) The study was carried out • 1. for Q-PCR by determining VEGF mRNA expression in cell lysates • 2. for ELISA by determining VEGF protein synthesis/secretion in the culture medium.

GM-CSF [4] = assay: ELISA, GM-CSF experiments in HaCaT cells; assay type: cell-based, human; settings: 48 h
Procedure: as §1, §2, §3

VEGF [5] = assay: Q-PCR, VEGF mRNA expression in HaCaT cell lysates; assay type: cell-based, human
Procedure: as §1, §2, §3, §4

GM-CSF [6] = assay: Q-PCR, GM-CSF experiments in HaCaT cells; assay type: cell-based, human; settings: all tested caffeine concentrations, 24 h, Experiments 1 and 2
Procedure: as §1, §2, §3

[7] = humans, after drinking four cups of coffee; cited from earlier work
TGFβ1 = assay: Q-PCR, TGFβ1 mRNA expression in HaCaT cells; assay type: cell-based, human
[8] = 0.0005% caffeine, both experiments

For `Cn1c(=O)c2c(ncn2C)n(C)c1=O` [caffeine], the “mRNA expression of TGFβ2” value (TGFβ2; certain caffeine concentrations, 24 h, Experiment 2) was “apparently increase mRNA expression of TGFβ2”, the “synthesis/production/secretion of TGFβ2” value (TGFβ2; taken together, contradictory results in the two Q-PCR experiments) was “most likely does not alter” and the cell proliferation [1] was “appears to promote cell proliferation”. The cytotoxicity ([2]; 0.00005-0.005% caffeine, up to 72 hours) was “none of the concentrations tested showed cytotoxicity”, the “number of viable cells” value ([2]; certain concentrations of caffeine, MTT) was “increased the number of viable cells” and the “VEGF protein production/secretion compared to the control group” value (VEGF [3]; [8]) was “increases VEGF protein production/secretion”. For the same compound, the “VEGF protein production/secretion compared to the control group” value (VEGF [3]; 0.005% caffeine, Experiment 2) was “also showed an effect”, the “VEGF protein production/secretion compared to the control group (experiments regarding GM-CSF)” value (GM-CSF [4]; 0j.005% caffeine, Experiment 2) was “also showed an effect” and the “VEGF protein production/secretion compared to the control group (experiments regarding GM-CSF)” value (GM-CSF [4]; [8]) was “increased VEGF protein production/secretion”. The “mRNA expression of VEGF compared to the control group” value (VEGF [5]; all caffeine concentrations, 24 hours treatment, Experiments 1 and 2) was “appear to increase mRNA expression of VEGF”, the “synthesis and production/secretion of VEGF” value (VEGF [5]; certain concentrations of caffeine, Q-PCR and ELISA taken together) was “increase the synthesis and production/secretion of VEGF” and the “mRNA expression of VEGF compared to the control group (experiments regarding GM-CSF)” value (GM-CSF [6]) was “apparently increased the mRNA expression of VEGF”. For the same compound, the “caffeine concentration in the blood serum” value [7] was 20 to 50 µmol/L, the “total amount corresponding to the serum concentration” value [7] was 15-35 milligrams and the “mRNA expression of TGFβ1” value (TGFβ1; all tested caffeine concentrations, 24 h, Experiments 1 and 2) was “None of the tested caffeine concentrations changed the mRNA expression of TGFβ1”. The “synthesis/production/secretion of TGFβ1” value (TGFβ1; taken together, Q-PCR and ELISA) was “does not alter”.

From patent US20240207157A1, “ORAL CARE AGENT” (priority 2021, published 2024)
